Like-named read-outs stand apart in the source and are kept apart here.
Columns and labels:
Experiment in all cases: In vitro antibacterial activity, agar dilution
Assay type in all cases: cell-based
[1] = test system: Bacteroides cereus; details: read-out: Minimal Inhibitory Concentration
Method: (§1) The in vitro antibacterial effects of antibiotics LL-E19085α, LL-E19085β, LL-E19085γ, LL-E19085.zeta. and LL-E19085.eta. were determined by standard agar dilution methods against clinical isolates obtained from medical centers representing various geographical areas in the United States. The inoculum of each culture was approximately 1 to 5×10^4 colony forming units applied with a Steers multiple inocula replicator to plates containing the antibiotic in Mueller-Hinton agar. The agar was supplemented with about 5% sheep blood where required for the growth of the organism.

[2] = test system: Enterococcus Grp D; details: strain WRVA 88-33, Mueller-Hinton agar, read-out: Minimal Inhibitory Concentration
Method: as §1

[3] = test system: Enterococcus; details: read-out: Minimal Inhibitory Concentration
Method: as §1

[4] = test system: Escherichia coli
Method: as §1

[5] = test system: Klebsiella pneumoniae; details: read-out: Minimal Inhibitory Concentration
Method: as §1

[6] = test system: Staphylococcus aureus; details: read-out: Minimal Inhibitory Concentration
Method: as §1

[7] = test system: Staphylococcus hemolyticus; details: read-out: Minimal Inhibitory Concentration
Method: as §1

[8] = test system: Streptococcus a-hemolyticus; details: strain AMCH 88-84, Mueller-Hinton agar, read-out: Minimal Inhibitory Concentration
Method: as §1

[9] = test system: Streptococcus b-hemolyticus; details: strain AMCH 88-86, Mueller-Hinton agar, read-out: Minimal Inhibitory Concentration
Method: as §1

[10] = test system: Streptococcus faecalis; details: Enterococcus faecalis, Mueller-Hinton agar, read-out: Minimal Inhibitory Concentration
Method: as §1

[11] = test system: Streptococcus pneumoniae; details: read-out: Minimal Inhibitory Concentration
Method: as §1

[12] = test system: Alcaligenes ssp.; details: strain ISG 86-34, Mueller-Hinton agar, read-out: Minimal Inhibitory Concentration
Method: as §1

[13] = test system: Bacteroides fragilis; details: ATCC25285, strain ATCC 25285, Mueller-Hinton agar, read-out: Minimal Inhibitory Concentration
Method: as §1

[14] = test system: Bacteroides theta; details: read-out: Minimal Inhibitory Concentration
Method: as §1

[15] = test system: Bacteroides vulgaris; details: ATCC29327, strain ATCC 29327, Mueller-Hinton agar, read-out: Minimal Inhibitory Concentration
Method: as §1

[16] = test system: Citrobacter diversis; details: strain MOR 84-3, Mueller-Hinton agar, read-out: Minimal Inhibitory Concentration
Method: as §1

[17] = test system: Clostridium differensis; details: ATCC17858, strain ATCC 17858, Mueller-Hinton agar, read-out: Minimal Inhibitory Concentration
Method: as §1

[18] = test system: Clostridium perfringen; details: ATCC13124, strain ATCC 13124, Mueller-Hinton agar, read-out: Minimal Inhibitory Concentration
Method: as §1

[19] = test system: Enterobacter cloacae; details: strain VGH 84-37, Mueller-Hinton agar, read-out: Minimal Inhibitory Concentration
Method: as §1

[20] = test system: Morganella morganii; details: strain VGH 84-11, Mueller-Hinton agar, read-out: Minimal Inhibitory Concentration
Method: as §1

[21] = test system: Peptococcus asacrolytis; details: strain ATCC 29743; Mueller-Hinton agar; read-out: Minimal Inhibitory Concentration
Method: as §1

[22] = test system: Peptococcus magnus; details: Finegoldia magna, Mueller-Hinton agar, read-out: Minimal Inhibitory Concentration
Method: as §1

[23] = test system: Proteus vulgaris; details: strain CMC 84-35, Mueller-Hinton agar, read-out: Minimal Inhibitory Concentration
Method: as §1

[24] = test system: Pseudomonas aeruginosa; details: strain 12-4-4, Mueller-Hinton agar, read-out: Minimal Inhibitory Concentration
Method: as §1

[25] = test system: Serratia marcescens; details: strain K 84-14, Mueller-Hinton agar, read-out: Minimal Inhibitory Concentration
Method: as §1

[26] = test system: Staphylococcus epidermidis; details: strain IO 83-58, Mueller-Hinton agar, read-out: Minimal Inhibitory Concentration
Method: as §1

[27] = test system: Staphylococcus saphrophiticus; details: strain VGH 84-50, Mueller-Hinton agar, read-out: Minimal Inhibitory Concentration
Method: as §1

[28] = test system: Streptococcus β-hemolyticus; details: Mueller-Hinton agar
Method: as §1

[29] = test system: erratia rubidea; details: strain UHL 86-4; Mueller-Hinton agar; read-out: Minimal Inhibitory Concentration
Method: as §1

[30] = strain CHBM 88-60, Mueller-Hinton agar
[31] = ATCC25922, strain ATCC 25922, Mueller-Hinton agar, read-out: Minimal Inhibitory Concentration
[32] = ATCC35218, strain ATCC 35218, Mueller-Hinton agar, read-out: Minimal Inhibitory Concentration
[33] = read-out: Minimal Inhibitory Concentration, strain D21, Mueller-Hinton agar
[34] = strain D22, Mueller-Hinton agar, read-out: Minimal Inhibitory Concentration
[35] = strain NEMC 87-271, Mueller-Hinton agar
[36] = ATCC25923, strain ATCC 25923, Mueller-Hinton agar
[37] = ATCC29213, strain ATCC 29213, Mueller-Hinton agar
[38] = strain CMC 83-131, Mueller-Hinton agar
[39] = strain IVES 542, Mueller-Hinton agar
[40] = strain K82-26, Mueller-Hinton agar
[41] = strain NEMC 87-69, Mueller-Hinton agar
[42] = strain ROSE (MP), Mueller-Hinton agar
[43] = strain VGH 84-47, Mueller-Hinton agar
[44] = strain AVAH 88-1, Mueller-Hinton agar
[45] = strain AVAH 88-3, Mueller-Hinton agar
[46] = strain CHBB 88-75, Mueller-Hinton agar
[47] = strain CHBM 88-70, Mueller-Hinton agar
[48] = strain TEX 85-2, Mueller-Hinton agar

COc1cc2oc3c(c(=O)c2cc1OC)C(=O)c1c(ccc2cc4c(c(O)c12)C(=O)N1C(C)(C4)OC(=O)C1(C)CO)C3=O (centres unmarked) [LL-E19085.eta.]
≥ 32 µg/mL: MIC [4, 33] | MIC [5, 35]
≤ 0.015 µg/mL: MIC [1] | MIC [2] | MIC [3, 30] | MIC [6, 36] | MIC [6, 37] | MIC [6, 39] | MIC [6, 40] | MIC [6, 41] | MIC [6, 42] | MIC [6, 43] | MIC [7, 44] | MIC [7, 45] | MIC [8] | MIC [9] | MIC ([10]; strain ARUM 87-41) | MIC ([10]; strain CMC 83-120) | MIC ([10]; strain VCH 84-69) | MIC ([10]; strain VCI 85-30) | MIC [11, 46] | MIC [11, 47] | MIC [11, 48]
0.12 µg/mL: MIC [6, 38]
> 32 µg/mL: MIC [4, 31] | MIC [4, 32]
2 µg/mL: MIC [4, 34]

COc1cc2oc3c(c(=O)c2cc1OC)C(=O)c1c(ccc2cc4c(c(O)c12)C(=O)N1C(C)(C4)OC(=O)C1(C)COC(=O)CC(C)C)C3=O (stereo not drawn) [LL-E19085α]
0.12 µg/mL: MIC ([3]; strain IO 83-40, Mueller-Hinton agar) | MIC [6, 36] | MIC ([6]; strain Smith, Mueller-Hinton agar)
16 µg/mL: MIC [13]
> 128 µg/mL: MIC [12] | MIC [16] | MIC [19] | MIC [4, 31] | MIC ([4]; strain No. 311, Mueller-Hinton agar, read-out: Minimal Inhibitory Concentration) | MIC ([5]; strain AD, Mueller-Hinton agar) | MIC [20] | MIC [23] | MIC [24] | MIC [25] | MIC [29]
4 µg/mL: MIC ([14]; ATCC29741, strain ATCC 29741, Mueller-Hinton agar) | MIC ([14]; ATCC29742, strain ATCC 29742, Mueller-Hinton agar)
≤ 0.06 µg/mL: MIC [15] | MIC [17] | MIC [18] | MIC ([3]; strain CMC 83-72, Mueller-Hinton agar) | MIC ([3]; strain IO 83-28, Mueller-Hinton agar) | MIC ([3]; strain VGH 84-65, Mueller-Hinton agar) | MIC ([3]; strain VGH 84-68, Mueller-Hinton agar) | MIC [21] | MIC ([22]; ATCC14956, strain ATCC 14956) | MIC ([22]; ATCC29328, strain ATCC 29328) | MIC [6, 37] | MIC ([6]; strain CMC 83-127, Mueller-Hinton agar) | MIC [6, 38] | MIC ([6]; strain CMC 83-132, Mueller-Hinton agar) | MIC ([6]; strain SSC 82-57, Mueller-Hinton agar) | MIC ([6]; strain VGH 84-45, Mueller-Hinton agar) | MIC [26] | MIC [27] | MIC ([11]; strain K 84-21, Mueller-Hinton agar) | MIC ([11]; strain SV-1, Mueller-Hinton agar) | MIC ([28]; Streptococcus, strain C 203, read-out: Minimal Inhibitory Concentration) | Minimal Inhibitory Concentration ([28]; strain VGH 84-60) | Minimal Inhibitory Concentration ([28]; strain VGH 84-61) | Minimal Inhibitory Concentration ([28]; strain VGH 84-62)

COc1cc2oc3c(c(=O)c2cc1OC)C(=O)c1c(ccc2cc4c(c(O)c12)C(=O)N1C(C)(C4)OC(=O)C1(C)COC(=O)C(C)C)C3=O (stereo not drawn) [LL-E19085β]
0.5 µg/mL: MIC [6, 36] | MIC [8]
8 µg/mL: MIC [4, 34]
0.12 µg/mL: MIC [11, 46] | MIC [11, 48]
> 64 µg/mL: MIC [4, 31] | MIC [4, 32]
4 µg/mL: MIC [6, 38] | MIC [6, 39] | MIC [6, 41] | MIC [6, 43] | MIC [7, 45]
2 µg/mL: MIC [1] | MIC [2] | MIC [3, 30] | MIC [6, 37] | MIC [6, 40] | MIC [6, 42] | MIC [7, 44] | MIC [9] | MIC ([10]; strain ARUM 87-41) | MIC ([10]; strain CMC 83-120) | MIC ([10]; strain VCH 84-69) | MIC ([10]; strain VCI 85-30)
≥ 64 µg/mL: MIC [4, 33] | MIC [5, 35]
0.25 µg/mL: MIC [11, 47]

COc1cc2oc3c(c(=O)c2cc1OC)C(=O)c1c(ccc2cc4c(c(O)c12)C(=O)N1C(C)(C4)OC(=O)C1(C)COC(C)=O)C3=O (centres unmarked) [LL-E19085γ]
0.06 µg/mL: MIC ([10]; strain VCI 85-30)
0.5 µg/mL: MIC [1] | MIC [2] | MIC [3, 30] | MIC [7, 45] | MIC ([10]; strain ARUM 87-41)
0.03 µg/mL: MIC ([10]; strain VCH 84-69)
≥ 0.008 µg/mL: MIC [6, 36]
≤ 0.008 µg/mL: MIC [6, 40] | MIC [8] | MIC [9] | MIC [11, 46] | MIC [11, 47] | MIC [11, 48]
16 µg/mL: MIC [4, 34] | MIC [6, 38]
8 µg/mL: MIC [6, 39] | MIC [7, 44]
> 16 µg/mL: MIC [4, 31] | MIC [4, 32]
1 µg/mL: MIC [6, 37] | MIC [6, 42] | MIC [6, 43] | MIC ([10]; strain CMC 83-120)
≥ 16 µg/mL: MIC [4, 33] | MIC [5, 35]
4 µg/mL: MIC [6, 41]

Source: patent publication US5096907A, “Antibiotic LL-E19085” (American Cyanamid Company, priority 1991, dated 1992)
